According to PubChem BioAssay AID1918941 (Molecular Pharmacology Branch, DTP, NCI, 2023):
Several values for one entry are separate records, joined by “and”; a condition that tells them apart may be missing. Identical values can stand only once.

Tested on: SW 1271 complex spheroids, viability
Experiment: Anticancer human tumor SW 1271 cell line growth inhibition [LSD1];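 note: spheroids exposed to agents for 7 days before luminescence read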;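 for viability, T/C: 100% = DMSO vehicle control viability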
Settings: for viability, T/C: stronger effect = lower value
In short: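 Complex spheroids of tumor cells with HUVEC and human MSCs, exposed to iadademstat combined with other agents. Each agent tested in half-log steps from near clinical Cmax (else 10 microM top), DMSO ≤0.25%.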

[1] = curve of first compound, second compound 0.1 µM
[2] = curve of first compound, second compound 0.316 µM
[3] = curve of first compound, second compound 1 µM
[4] = curve of first compound, second compound 3.16 µM
[5] = curve of first compound, second compound 10 µM
[6] = second compound 0.1 µM, first compound 0.00949 µM
[7] = second compound 0.1 µM, first compound 0.03 µM
[8] = second compound 0.1 µM, first compound 0.0949 µM
[9] = second compound 0.1 µM, first compound 0.3 µM
[10] = second compound 0.316 µM, first compound 0.00949 µM
[11] = second compound 0.316 µM, first compound 0.03 µM
[12] = second compound 0.316 µM, first compound 0.0949 µM
[13] = second compound 0.316 µM, first compound 0.3 µM
[14] = second compound 1 µM, first compound 0.00949 µM
[15] = second compound 1 µM, first compound 0.03 µM
[16] = second compound 1 µM, first compound 0.0949 µM
[17] = second compound 1 µM, first compound 0.3 µM
[18] = second compound 3.16 µM, first compound 0.00949 µM
[19] = second compound 3.16 µM, first compound 0.03 µM
[20] = second compound 3.16 µM, first compound 0.0949 µM
[21] = second compound 3.16 µM, first compound 0.3 µM
[22] = second compound 10 µM, first compound 0.00949 µM
[23] = second compound 10 µM, first compound 0.03 µM
[24] = second compound 10 µM, first compound 0.0949 µM
[25] = second compound 10 µM, first compound 0.3 µM

## CCc1c2c(nc3ccc(O)cc13)-c1cc3c(c(=O)n1C2)COC(=O)[C@]3(O)CC + NC1CC1c1ccc(-c2cccc(O)c2)cc1
[1]
  IC50: < 0.000949 µM
[2]
  IC50: 0.00107 µM
[3]
  IC50: < 0.000949 µM
[4]
  IC50: < 0.000949 µM
[5]
  IC50: 0.00283 µM
Second compound 0.1 µM, first compound 0.000949 µM
  viability, T/C: 48.1%
Second compound 0.1 µM, first compound 0.003 µM
  viability, T/C: 46%
[6]
  viability, T/C: 26.5%
[7]
  viability, T/C: 8.18%
[8]
  viability, T/C: 8.27%
[9]
  viability, T/C: 3.92%
Second compound 0.316 µM, first compound 0.000949 µM
  viability, T/C: 50.5%
Second compound 0.316 µM, first compound 0.003 µM
  viability, T/C: 45.4%
[10]
  viability, T/C: 25.9%
[11]
  viability, T/C: 10.3%
[12]
  viability, T/C: 8.68%
[13]
  viability, T/C: 6.46%
Second compound 1 µM, first compound 0.000949 µM
  viability, T/C: 49.4%
Second compound 1 µM, first compound 0.003 µM
  viability, T/C: 43%
[14]
  viability, T/C: 27.4%
[15]
  viability, T/C: 9.38%
[16]
  viability, T/C: 5.98%
[17]
  viability, T/C: 3.79%
Second compound 3.16 µM, first compound 0.000949 µM
  viability, T/C: 48.2%
Second compound 3.16 µM, first compound 0.003 µM
  viability, T/C: 50.2%
[18]
  viability, T/C: 26.7%
[19]
  viability, T/C: 9.15%
[20]
  viability, T/C: 5.19%
[21]
  viability, T/C: 5.82%
Second compound 10 µM, first compound 0.000949 µM
  viability, T/C: 56.6%
Second compound 10 µM, first compound 0.003 µM
  viability, T/C: 48.5%
[22]
  viability, T/C: 30.1%
[23]
  viability, T/C: 9.23%
[24]
  viability, T/C: 7.28%
[25]
  viability, T/C: 5.03%

## CCN(c1cc(-c2ccc(CN3CCOCC3)cc2)cc(C(=O)NCc2c(C)cc(C)[nH]c2=O)c1C)C1CCOCC1 + NC1CCC(NC2CC2c2ccccc2)CC1
[1]
  IC50: > 3 µM
[2]
  IC50: > 3 µM
[3]
  IC50: > 3 µM
[4]
  IC50: > 3 µM
[5]
  IC50: > 3 µM
[6]
  viability, T/C: 98.7%
[7]
  viability, T/C: 97%
[8]
  viability, T/C: 93.6%
[9]
  viability, T/C: 94.8%
Second compound 0.1 µM, first compound 0.949 µM
  viability, T/C: 82.5%
Second compound 0.1 µM, first compound 3 µM
  viability, T/C: 75%
[10]
  viability, T/C: 95%
[11]
  viability, T/C: 113%
[12]
  viability, T/C: 98.8%
[13]
  viability, T/C: 93%
Second compound 0.316 µM, first compound 0.949 µM
  viability, T/C: 85.5%
Second compound 0.316 µM, first compound 3 µM
  viability, T/C: 67.3%
[14]
  viability, T/C: 104%
[15]
  viability, T/C: 103%
[16]
  viability, T/C: 107%
[17]
  viability, T/C: 94.2%
Second compound 1 µM, first compound 0.949 µM
  viability, T/C: 71.6%
Second compound 1 µM, first compound 3 µM
  viability, T/C: 75.8%
[18]
  viability, T/C: 119%
[19]
  viability, T/C: 107%
[20]
  viability, T/C: 104%
[21]
  viability, T/C: 94.6%
Second compound 3.16 µM, first compound 0.949 µM
  viability, T/C: 76.5%
Second compound 3.16 µM, first compound 3 µM
  viability, T/C: 56.8%
[22]
  viability, T/C: 106%
[23]
  viability, T/C: 105%
[24]
  viability, T/C: 88.7%
[25]
  viability, T/C: 95.6%
Second compound 10 µM, first compound 0.949 µM
  viability, T/C: 72.9%
Second compound 10 µM, first compound 3 µM
  viability, T/C: 66.9%

## Cn1ncnc1C1c2n[nH]c(=O)c3cc(F)cc(c23)NC1c1ccc(F)cc1 (configuration not stated) + NC1CC1c1ccc(-c2cccc(O)c2)cc1
[1]
  IC50: > 0.1 µM
[2]
  IC50: > 0.1 µM
[3]
  IC50: > 0.1 µM
[4]
  IC50: > 0.1 µM
[5]
  IC50: 0.0655 µM
Second compound 0.1 µM, first compound 0.000316 µM
  viability, T/C: 97.8%
Second compound 0.1 µM, first compound 0.001 µM
  viability, T/C: 80.9%
Second compound 0.1 µM, first compound 0.00316 µM
  viability, T/C: 72.3%
Second compound 0.1 µM, first compound 0.01 µM
  viability, T/C: 85.8%
Second compound 0.1 µM, first compound 0.0316 µM
  viability, T/C: 71.3%
Second compound 0.1 µM, first compound 0.1 µM
  viability, T/C: 66.7%
Second compound 0.316 µM, first compound 0.000316 µM
  viability, T/C: 77.6%
Second compound 0.316 µM, first compound 0.001 µM
  viability, T/C: 72.6%
Second compound 0.316 µM, first compound 0.00316 µM
  viability, T/C: 67.5%
Second compound 0.316 µM, first compound 0.01 µM
  viability, T/C: 68.9%
Second compound 0.316 µM, first compound 0.0316 µM
  viability, T/C: 71%
Second compound 0.316 µM, first compound 0.1 µM
  viability, T/C: 77%
Second compound 1 µM, first compound 0.000316 µM
  viability, T/C: 78.1%
Second compound 1 µM, first compound 0.001 µM
  viability, T/C: 75.7%
Second compound 1 µM, first compound 0.00316 µM
  viability, T/C: 72.8%
Second compound 1 µM, first compound 0.01 µM
  viability, T/C: 67.5%
Second compound 1 µM, first compound 0.0316 µM
  viability, T/C: 66.1%
Second compound 1 µM, first compound 0.1 µM
  viability, T/C: 82.7%
Second compound 3.16 µM, first compound 0.000316 µM
  viability, T/C: 75.8%
Second compound 3.16 µM, first compound 0.001 µM
  viability, T/C: 85.5%
Second compound 3.16 µM, first compound 0.00316 µM
  viability, T/C: 78.9%
Second compound 3.16 µM, first compound 0.01 µM
  viability, T/C: 57.3%
Second compound 3.16 µM, first compound 0.0316 µM
  viability, T/C: 59.2%
Second compound 3.16 µM, first compound 0.1 µM
  viability, T/C: 57.9%
Second compound 10 µM, first compound 0.000316 µM
  viability, T/C: 64.7%
Second compound 10 µM, first compound 0.001 µM
  viability, T/C: 66.7%
Second compound 10 µM, first compound 0.00316 µM
  viability, T/C: 67.2%
Second compound 10 µM, first compound 0.01 µM
  viability, T/C: 61.3%
Second compound 10 µM, first compound 0.0316 µM
  viability, T/C: 48.6%
Second compound 10 µM, first compound 0.1 µM
  viability, T/C: 49.7%

## O=C(c1cc(Cc2n[nH]c(=O)c3ccccc23)ccc1F)N1CCN(C(=O)C2CC2)CC1
Compound 0.0316 µM
  viability, T/C: 84.9% and 80.2%
Compound 0.1 µM
  viability, T/C: 85.2% and 85.3%
Compound 0.316 µM
  viability, T/C: 81.4% and 76.1%
Compound 1 µM
  viability, T/C: 81.5% and 85.4%
Compound 3.16 µM
  viability, T/C: 90.2% and 77%
Compound 10 µM
  viability, T/C: 87.5% and 68.8%
Curve of compound
  IC50: > 10 µM
